In paper PMC6627486, “Ipomoeassin F Binds Sec61α to Inhibit Protein Translocation” (Journal of the American Chemical Society, 2019):
Read-outs that look alike come from different tables or passages of the source.

Assays:
Sec61α = assay: Competition with CT7 photo-affinity labeling of Sec61α in sheep rough microsomes; format: binding; details: 10 μM compound, 100 nM CT7, sheep rough microsomes
Protocol: MDA-MB-231 cells were seeded on fibronectin-coated coverslips at 70% confluency in a 48-well plate and cultured at 37 °C and 5% CO2. After 24 h, culture medium was replaced with fresh medium containing a 20 µM competitor or an equal volume of DMSO vehicle for 30 min at 37 °C and 5% CO2, followed by addition of 0.2 µM (final concentration) fluorescent probe 12. After 1 h incubation at 37 °C and 5% CO2, the coverslips were mounted onto a glass slide with a mounting medium with or without 0.5 µg/ml DAPI.
The fluorescent images were acquired with a confocal microscope (Leica TCS SP5) using 405 nm excitation and 562 nm excitation. For the ER co-localization studies, 1 uM ER-Tracker™ Blue-White DPX was added to the medium after 1 h incubation with probe 12. After 5 min incubation, the coverslips were mounted onto a glass slide and the images were acquired as described above.
CT7 photo-affinity labeling and click chemistry were done as previously described.14 Briefly, SRMs (sheep rough microsomes, isolated as described in reference15) containing 100 nM Sec61 were treated with 10 µM ipomoeassin F/mycolactone or 1% DMSO for 30 min at 0°C, followed by incubation with 100 nM CT7 for 10 min RT. Samples were then photolyzed for 10 min and crosslinked proteins were detected by click chemistry, SDS-PAGE, and in-gel fluorescent scanning (Typhoon Trio, GE Healthcare). […]

WT HEK = assay: Alamar Blue viability, WT HEK293; format: cell-based, human; details: read-out: cell viability IC50
Protocol: AlamarBlue Cytotoxicity Assay […]
HCT116 and HEK293T. Viable cells were counted using an automated cell counter (BioRad TC20) before each experiment. Experiments were performed either in quadruplicate or duplicate sets. First 100µ l of HCT116 or HEK293T cells at a density of 25,000 cells/m l was seeded in black wall, clear bottom, 96-well plates (2500 cells/well) (Viewplate-96 Perkin Elmer). HEK293 FRT Trex cells were seeded in complete medium supplemented to 1 μg/ml Doxycycline to induce expression of Sec61a constructs. Cells were then incubated at 37 °C and 5% CO2 for 24 h. The compounds were dissolved in DMSO to make drug stocks (10 mM). The stock solutions were diluted with the complete DMEM or McCoy’s 5A culture media supplemented with DMSO to make a series of gradient fresh working solutions at equal DMSO percentage immediately prior to each test. Subsequently, the cells were treated with 25 μl of the freshly made gradient in a total volume of 125 μl/well for 72 h. After that, the media were supplemented with 10% of AlamarBlue (resazurin) stock solution. The plate was then incubated at 37 °C and 5% CO2 for another 4 h. Emission of each well at 620 nm was detected by a microplate reader (Perkin Elmer EnSpire) at excitation 580 nm. The percentage of viability compared to the negative control (DMSO -treated cells) was determined. […]

HCT D60G = assay: Alamar Blue viability, HCT116 Sec61α D60G (96 h); format: cell-based, human
Protocol: (§1) AlamarBlue Cytotoxicity Assay
MDA-MB-231, MCF-10A and HCT116. Viable cells were counted with a hemocytometer immediately before each experiment . Experiments were done in triplicate. First, 100 μL of MDA-MB-231 cells or MCF-10A cells at the density of 50,000 cells/mL was seeded in a 96-well plate (5,000 cells/well) and then incubated at 37 °C and 5% CO2 for 24 h. The compounds were dissolved in DMSO (dimethyl sulfoxide) to make drug stocks (10 mM). The stock solutions were diluted with the complete DMEM high glucose culture medium to make a series of gradient fresh working solutions right before each test. Subsequently, the cells were treated with 100 μL of the freshly made gradient working solution in a total volume of 200 μL/well for 72 h. After that, the media were discarded and 200 μL of the fresh complete medium containing 10% of AlamarBlue (resazurin) stock solution was added to each well. The plate was then incubated at 37 °C and 5% CO2 for another 3 h. Emission of each well at 620 nm was detected by a microplate reader (BioTek Synergy H1) at excitation 580 nm. For HCT116 WT and mutant lines, cells were seeded at 1000 cells/ well in complete McCoys medium. […] Cells were treated for 96 h, then viability measured with AlamarBlue, detected using the conditions described but with a BMG Fluostar Optima Microplate Reader. […]
(§2) was determined. […]

MDA-MB-231 = assay: AlamarBlue cytotoxicity assay, MDA-MB-231; format: cell-based, human; details: Homo sapiens, MDA-MB-231, 72 h, read-out: Cytotoxicity (IC50)
Protocol: as §1
MDA-MB-231, MCF-10A and HCT116. Viable cells were counted with a hemocytometer immediately before each experiment . Experiments were done in triplicate. First, 100 μL of MDA-MB-231 cells or MCF-10A cells at the density of 50,000 cells/mL was seeded in a 96-well plate (5,000 cells/well) and then incubated at 37 °C and 5% CO2 for 24 h. The compounds were dissolved in DMSO (dimethyl sulfoxide) to make drug stocks (10 mM). The stock solutions were diluted with the complete DMEM high glucose culture medium to make a series of gradient fresh working solutions right before each test. Subsequently, the cells were treated with 100 μL of the freshly made gradient working solution in a total volume of 200 μL/well for 72 h. After that, the media were discarded and 200 μL of the fresh complete medium containing 10% of AlamarBlue (resazurin) stock solution was added to each well. The plate was then incubated at 37 °C and 5% CO2 for another 3 h. Emission of each well at 620 nm was detected by a microplate reader (BioTek Synergy H1) at excitation 580 nm. […]
Microplate Reader. The percentage of viability compared to the negative control (DMSO-treated cells) […]
as §2

| SMILES | competition with CT7 photo-cross-linking to Sec61α (Sec61α) | IC50 (WT HEK; 72 h) | IC50 (HCT D60G; read-out: cell viability IC50) | IC50 (MDA-MB-231; AlamarBlue) | IC50 (WT HEK; Homo sapiens, HEK293, 72 h) | IC50 (MDA-MB-231) | IC50 (HCT D60G; Homo sapiens, HCT-116, read-out: cell viability IC50) |
| --- | --- | --- | --- | --- | --- | --- | --- |
| CC(=C\C=C\C(C)=C\[C@H](O)[C@@H](O)C[C@H](C)O)/C=C(C)/C=C/C(=O)O[C@H]1CCCC(=O)O[C@@H]([C@@H](C)C/C(C)=C/[C@@H](C)[C@H](O)C[C@@H](C)O)C/C=C(\C)C[C@@H]1C [mycolactone, reference compound] | efficiently competes with CT7 | 23.6 ± 0.6 nM | > 330 nM | – | – | – | – |
| C/C=C(\C)C(=O)O[C@H]1[C@H](OC(=O)/C=C/c2ccc(OCc3cn(CCOCCOCCOCCNC(=O)CCCC[C@@H]4SC[C@@H]5NC(=O)N[C@@H]54)nn3)cc2)[C@@H](O)[C@@H]2O[C@H]3[C@H](O[C@@H](CCCCC)CCCCCCC(=O)CCC(=O)OC[C@H]1O2)O[C@H](C)[C@H](OC(C)=O)[C@@H]3O [compound 5] | – | – | – | 29.5 nM | – | – | – |
| C/C=C(\C)C(=O)O[C@@H]1[C@@H](O)[C@@H]2O[C@H]3[C@H](O[C@@H](CCCCC)CCCCCCC(=O)CCC(=O)OC[C@@H](O2)[C@H]1OC(=O)/C=C/c1ccccc1)O[C@H](C)[C@H](OC(C)=O)[C@@H]3O [ipomoeassin F] | similarly potent competition | – | – | – | 9.6 ± 1 nM | 6.3 nM | 88.1 ± 10.3 nM |
